# According to patent US9572821B2, “Pharmaceutical compositions for preventing and treating eye pathologies” (MITOTECH SA, priority 2006, dated 2017):
# Columns and labels:
# Format in all cases: in vivo, rat
# [1] = system: cataract in OXYS rats; assay: Prophylactic effect on cataract (lens changes), ophthalmoscopic examination of OXYS rats; details: for 2nd stage of cataract: KBr: % of total number of eyes, vitamin E: % of changes; for lens changes observed/registered (cataract morbidity): after oral course from 1.5 to 3 months, % of eyes/cases; for lens changes observed/registered (cataract morbidity) / cataract newly affected/added during the course (20% of eyes already affected at 1.5 months): SkQ1 or KBr 50 nmol per kg
# Experimental: (§1) The study was carried out using OXYS and Wistar male rats. The animals were housed in cages (five rats per a cage) and kept under standard laboratory conditions (at 22±1° C., 60% relative humidity, and natural light), provided with a standard rodent diet (PK-120-1, Ltd. ‘Laboratorsnab’, Russia), and given water ad libitum. At the age of 1.5 months after preliminary pupil dilation with 1% tropicamide ophthalmic the rats were examined by ophthalmologist. During the period from 1.5 to 3 months, which is critical for the development of pronounced changes in eye organ of OXYS rats, the animals were given either SkQ1 (50 nmol per kg of body weight), or KBr (50 nmol per kg of body weight) or vitamin E (alfa-tocopherol acetate, 20 mg per kg). We use Vitamin E for a comparison with test antioxidants. Animals received the compounds on a small piece of dried bread before a regular meal, and the control group of animals received the same piece of bread without any compound. After completing the course of antioxidants the animals were weighed and retested with ophthalmoscope. To avoid human factor in the evaluation of compound effects, the researcher who conducted the ophthalmoscopic examination was not told which of the animals received antioxidants.
# (§2) The ophthalmoscopic examination was carried out using direct ophthalmoscope “Betta”, Germany. In selected animals under fluorotane narcosis (1-1.5 minutes) eyeground was photographed, fluorescent angiography with the use of “Opton” fundus-camera was conducted or crystalline lenses were examined by means of slitlamp “Opton SL30” using system of automatic image registration (biomicroscopic research).
# (§3) The lens state was evaluated according to the classification system accepted in clinical practice (L. A. Katsnelson, T. I. Forofonova, A. Ya. Bunin, 1990) with grades ranging from 0 to 3: score 0—the lens is clear; score 1—spotted weak cloudiness; score 2—multiple spots of cloudiness and score 3—intense cloudiness of the lens core and nucleus. The presence and the degree of spotted changes in macular area were evaluated according to accepted classification: score 0—no changes; score 1—the 1st stage of pathology, when small yellow deposits, known as “drusen” appear underneath the macula; score 2—2nd stage, the development of prominent yellow spot with sharp edges with the size of 0.5 to 1 of the disk diameter (exudative detachment of pigment retinal epithelium); and score 3—3rd stage with extensive hemorrhage into macular area.
# (§4) Statistical processing of the results was carried out using the factorial dispersive analysis (ANOVA/MANOVA, Statistica, 5) with post hoc comparison of group average (Newman-Keul test) considering genotype and preparation as independent factors.
# [2] = system: lenses of Wistar rats; assay: Therapeutic experiment, state of crystalline lenses, Wistar rats aged 10.5 months; details: examination after therapy course at the age of 12 months, 50 nmol per kg of body weight, score 0-3
# Experimental: The study was carried out using OXYS and Wistar male rats. The animals were housed in cages (five rats per a cage) and kept under standard laboratory conditions (at 22±1° C., 60% relative humidity, and natural light), provided with a standard rodent diet (PK-120-1, Ltd. ‘Laboratorsnab’, Russia), and given water ad libitum. At the age of 1.5 months after preliminary pupil dilation with 1% tropicamide ophthalmic the rats were examined by ophthalmologist. […]
# (§5) The lens state was evaluated according to the classification system accepted in clinical practice (L. A. Katsnelson, T. I. Forofonova, A. Ya. Bunin, 1990) with grades ranging from 0 to 3: score 0—the lens is clear; score 1—spotted weak cloudiness; score 2—multiple spots of cloudiness and score 3—intense cloudiness of the lens core and nucleus. The presence and the degree of spotted changes in macular area were evaluated according to accepted classification: score 0—no changes; score 1—the 1st stage of pathology, when small yellow deposits, known as “drusen” appear underneath the macula; score 2—2nd stage, the development of prominent yellow spot with sharp edges with the size of 0.5 to 1 of the disk diameter (exudative detachment of pigment retinal epithelium); and score 3—3rd stage with extensive hemorrhage into macular area. […]
# [3] = system: macular dystrophy in OXYS rats; assay: Prophylactic effect on macular dystrophy (changes in macular area of retina), ophthalmoscopic examination of OXYS rats; details: for 2nd stage of macular degeneration: KBr: % of these changes; for changes in the macular area of the retina (macular dystrophy morbidity): after oral course from 1.5 to 3 months, % of eyes/cases; for changes in the macular area of the retina (macular dystrophy morbidity) / macular dystrophy newly affected during the course (10% already affected at 1.5 months): SkQ1 or KBr 50 nmol per kg
# Experimental: as §1, §2, §3, §4
# [4] = system: cataract in OXYS rats; assay: Therapeutic effect on state of crystalline lenses, OXYS rats aged 10.5 months; details: for pathological changes of lenses, before vs after the therapy course: 10.5 to 12 months, pair comparisons / comparison of average values; for Changes of lenses, grades (score): examination after therapy course at the age of 12 months, 50 nmol per kg of body weight, score 0-3
# Experimental: as §1, with “[…],” for “During the period from 1.5 to 3 months,”
# as §2, §3, §4
# [5] = system: retina of Wistar rats; assay: Therapeutic experiment, macular area of retina, Wistar rats aged 10.5 months; details: for Changes of macular area of retina, grades (score): Wistar rats, examination after therapy course at the age of 12 months, 50 nmol per kg of body weight, score 0-3
# Experimental: as §1, with “by ophthalmologist. […], which is” for “by ophthalmologist. During the period from 1.5 to 3 months, which is”, “received antioxidants. […]” for “received antioxidants.”
# as §5
# [6] = system: macular dystrophy (retinopathy) in OXYS rats; assay: Therapeutic effect on macular area of retina, OXYS rats aged 10.5 months; details: for pathological changes of retina, before vs after the therapy course / Changes of macular area of retina, grades (score): OXYS rats; for pathological changes of retina, before vs after the therapy course: 10.5 to 12 months, pair comparisons / comparison of average values; for Changes of macular area of retina, grades (score): examination after therapy course at the age of 12 months, 50 nmol per kg of body weight, score 0-3
# Experimental: as §1, with “During the period from 1.5 to 3 months, which is critical for the development of pronounced changes in eye organ of OXYS rats, the animals were given either SkQ1 (50 nmol per kg of body weight), or KBr (50 nmol per kg of body weight) or vitamin E (alfa-tocopherol acetate, 20 mg per kg).” left out
# as §2, §3, §4
# [7] = OXYS rats at 3 months, after course from 1.5 to 3 months
# [8] = OXYS rats at 3 months, vitamin E 20 mg per kg
# [9] = OXYS rats, 1.5 to 3 months, vitamin E 20 mg per kg
# [10] = OXYS rats at 3 months, after course from 1.5 to 3 months, SkQ1 50 nmol per kg
# [11] = OXYS rats, 1.5 to 3 months, SkQ1 50 nmol per kg
# [12] = one month after the end of SkQ1 administration, in contrast to the control group
# [13] = OXYS rats after SkQ1 therapy course
compound,measurement,setting,value
"[Br-].[K+] [KBr, reference compound]",2nd stage of cataract,[1]; [7],57%
same,lens changes observed/registered (cataract morbidity),[1]; [8],93%
same,cataract newly affected/added during the course (20% of eyes already affected at 1.5 months),[1]; [9],73%
same,"Changes of lenses, grades (score)",[2],0.5 ± 0.15 score
same,2nd stage of macular degeneration,[3]; [7],13%
same,changes in the macular area of the retina (macular dystrophy morbidity),[3]; [8],87%
same,macular dystrophy newly affected during the course (10% already affected at 1.5 months),"[3]; OXYS rats, 1.5 to 3 months",77%
same,"pathological changes of lenses, before vs after the therapy course",[4],authentically aggravated
same,"Changes of lenses, grades (score)",[4],1.6 ± 0.23 score
same,"Changes of macular area of retina, grades (score)",[5],0.25 ± 0.10 score
same,"pathological changes of retina, before vs after the therapy course",[6],no any changes
same,"Changes of macular area of retina, grades (score)",[6],1.13 ± 0.17 score
CC1=C(C)C(=O)C(CCCCCCCCCC[P+](c2ccccc2)(c2ccccc2)c2ccccc2)=CC1=O.[Br-] [SkQ1],stage to which the lens changes corresponded,[1]; [10],1st stage of cataract
same,lens changes observed/registered (cataract morbidity),[1]; [8],46%
same,"cataract cases, times less than in the group supplemented with KBr",[1]; [11],2.8 times
same,cataract newly affected/added during the course (20% of eyes already affected at 1.5 months),[1]; [9],26%
same,effect on cataract progression,"[1]; OXYS rats, FIG. 3",essentially affected their progression
same,changes in the state of crystalline lens after the end of the course,[1]; [12],no any changes
same,"Changes of lenses, grades (score)",[2],0.54 ± 0.14 score
same,stage to which the macular changes corresponded,[3]; [10],1st stage of macular degeneration
same,changes in the macular area of the retina (macular dystrophy morbidity),[3]; [8],38%
same,"macular dystrophy cases, times less than in the control group",[3]; [11],2.8 times
same,macular dystrophy newly affected during the course (10% already affected at 1.5 months),"[3]; OXYS rats, 1.5 to 3 months",28%
same,effect on macular dystrophy progression,"[3]; OXYS rats, FIG. 4",essentially affected their progression
same,changes in the state of retina after the end of the course,[3]; [12],no any changes
same,"pathological changes of lenses, before vs after the therapy course",[4],much less pronounced
same,"Changes of lenses, grades (score)",[4],0.41 ± 0.13 score
same,animals with changes of retina appropriate to even the most initial stage of disease,"[5]; Wistar rats supplemented with SkQ1, after 45 days",practically absent
same,"Changes of macular area of retina, grades (score)",[5],0.09 ± 0.06 score
same,hemorrhages in retina,[6]; [13],resolution of hemorrhages
same,ischemic centers in retina,[6]; [13],reduction of quantity and area of ischemic centers
same,puffiness of retina,[6]; [13],significant reduction of puffiness
same,"pathological changes of retina, before vs after the therapy course",[6],much less pronounced
same,"Changes of macular area of retina, grades (score)",[6],0.32 ± 0.13 score
"CC(=O)Oc1c(C)c(C)c2c(c1C)CCC(C)(CCC[C@H](C)CCC[C@H](C)CCCC(C)C)O2 (some centres unmarked) [vitamin E, alfa-tocopherol acetate]",2nd stage of cataract,[1]; [7],12%
same,lens changes observed/registered (cataract morbidity),[1]; [8],58%
same,"cataract cases, times less than in the control intact group",[1]; [9],1.8 times
same,cataract newly affected/added during the course (20% of eyes already affected at 1.5 months),[1]; [9],38%
same,2nd stage of macular degeneration,[3]; [7],8%
same,changes in the macular area of the retina (macular dystrophy morbidity),[3]; [8],54%
same,"macular changes, times less than in the control intact group",[3]; [9],1.5 times
